The target of the assay is T1, collagenase.
T1 construct: gene colG; docking used another collagenase (printed PDB 465C / 456C)
Briefly: FALGPA hydrolysis, ninhydrin, absorbance at […] nm. It is filed as biochemical. Particulars: FALGPA substrate, 50 mM tricine, 37 °C, 20 min preincubation; metal chelator.

These results are taken from paper PMC10840179, “Chemical and biological characterization of Melaleuca subulata (Cheel) Craven leaves’ volatile constituents supported by chemometric analysis and molecular docking” (BMC Complementary Medicine and Therapies, 2024).

Molecules are shown by their SMILES. ≈ marks a conversion by molar mass, not a printed value.

On to `O=C(O)CN(CCN(CC(=O)O)CC(=O)O)CC(=O)O` [EDTA], for which the “IC50 ± SD (% inhibition ± SD) / Anti-collagenase” value was found to be 315.12 ± 2.21 µg/mL (≈ 1080 µM).
